Assay results taken from US20220356174A1, “PYRIDIN-2-ONE COMPOUNDS USEFUL AS SMARCA2 ANTAGONISTS” (Epizyme, Inc., priority 2018, published 2022).

Assays:
[1] = biological target: T1, FL-SMARCA2 (full-length human SMARCA2 isoform 1) (Homo sapiens, UniProt P51531); assay: SMARCA2 ATPase activity assay (ADP-Glo, chicken mononucleosome substrate); format: biochemical; conditions: Table 3.1; ATPase assay, enzyme 5 nM, ATP 250 uM, chicken mononucleosome 10 nM, 30 min preincubation
T1 construct: FLAG tag (YKDDDDK) (C); made in house; host or cells: Sf21 insect cells (baculovirus, pFastBacI)
T1 sequence (P51531 with tags, fused parts or gaps): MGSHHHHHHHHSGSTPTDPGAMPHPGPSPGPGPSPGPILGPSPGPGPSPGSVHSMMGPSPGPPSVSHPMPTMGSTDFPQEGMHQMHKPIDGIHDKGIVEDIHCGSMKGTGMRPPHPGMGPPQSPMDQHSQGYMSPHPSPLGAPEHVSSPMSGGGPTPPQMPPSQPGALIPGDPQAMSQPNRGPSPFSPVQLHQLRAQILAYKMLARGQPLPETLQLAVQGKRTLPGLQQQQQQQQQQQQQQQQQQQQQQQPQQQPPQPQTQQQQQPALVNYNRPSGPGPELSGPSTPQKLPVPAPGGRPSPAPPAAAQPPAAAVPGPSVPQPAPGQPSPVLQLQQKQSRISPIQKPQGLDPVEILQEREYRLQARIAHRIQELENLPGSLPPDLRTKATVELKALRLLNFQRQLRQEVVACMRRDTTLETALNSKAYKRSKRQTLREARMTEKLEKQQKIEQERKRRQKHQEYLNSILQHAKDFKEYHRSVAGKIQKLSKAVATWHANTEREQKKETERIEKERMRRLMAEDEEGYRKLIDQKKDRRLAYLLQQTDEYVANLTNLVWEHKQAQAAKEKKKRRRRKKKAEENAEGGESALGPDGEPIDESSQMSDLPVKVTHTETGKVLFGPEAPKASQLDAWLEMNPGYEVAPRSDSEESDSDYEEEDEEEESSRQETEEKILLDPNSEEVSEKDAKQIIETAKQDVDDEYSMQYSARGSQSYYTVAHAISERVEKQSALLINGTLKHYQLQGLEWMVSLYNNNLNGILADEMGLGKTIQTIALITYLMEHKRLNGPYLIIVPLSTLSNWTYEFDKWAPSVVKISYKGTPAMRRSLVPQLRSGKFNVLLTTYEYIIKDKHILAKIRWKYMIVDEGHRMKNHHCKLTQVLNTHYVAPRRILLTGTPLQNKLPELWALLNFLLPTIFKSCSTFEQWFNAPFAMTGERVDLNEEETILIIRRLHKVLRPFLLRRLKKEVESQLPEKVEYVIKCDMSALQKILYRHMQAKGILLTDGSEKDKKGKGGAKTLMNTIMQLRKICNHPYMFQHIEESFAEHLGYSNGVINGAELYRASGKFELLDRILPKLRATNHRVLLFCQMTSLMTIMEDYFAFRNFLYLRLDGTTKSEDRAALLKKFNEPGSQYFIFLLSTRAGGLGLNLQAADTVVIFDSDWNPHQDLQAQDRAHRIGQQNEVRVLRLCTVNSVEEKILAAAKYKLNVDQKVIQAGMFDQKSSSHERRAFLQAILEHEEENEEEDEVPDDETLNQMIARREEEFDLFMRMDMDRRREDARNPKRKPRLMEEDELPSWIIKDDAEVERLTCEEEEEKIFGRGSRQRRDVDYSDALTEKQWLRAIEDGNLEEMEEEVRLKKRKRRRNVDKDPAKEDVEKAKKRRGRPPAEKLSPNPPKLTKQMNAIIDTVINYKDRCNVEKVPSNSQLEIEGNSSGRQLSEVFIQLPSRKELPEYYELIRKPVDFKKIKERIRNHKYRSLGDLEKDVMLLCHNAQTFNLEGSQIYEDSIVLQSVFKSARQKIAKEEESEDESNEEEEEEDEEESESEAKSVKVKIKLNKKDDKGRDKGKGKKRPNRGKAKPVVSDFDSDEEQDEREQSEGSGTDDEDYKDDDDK

FL-SMARCA4 = FL-SMARCA4 (Homo sapiens, UniProt P51532); assay: SMARCA4 ATPase activity assay (ADP-Glo, chicken mononucleosome substrate); conditions: FL-SMARCA4 IC50, Table 3.2; ATPase assay, enzyme 5 nM, ATP 250 uM, chicken mononucleosome 10 nM, 30 min preincubation
Sequence of FL-SMARCA4 (P51532 whole entry): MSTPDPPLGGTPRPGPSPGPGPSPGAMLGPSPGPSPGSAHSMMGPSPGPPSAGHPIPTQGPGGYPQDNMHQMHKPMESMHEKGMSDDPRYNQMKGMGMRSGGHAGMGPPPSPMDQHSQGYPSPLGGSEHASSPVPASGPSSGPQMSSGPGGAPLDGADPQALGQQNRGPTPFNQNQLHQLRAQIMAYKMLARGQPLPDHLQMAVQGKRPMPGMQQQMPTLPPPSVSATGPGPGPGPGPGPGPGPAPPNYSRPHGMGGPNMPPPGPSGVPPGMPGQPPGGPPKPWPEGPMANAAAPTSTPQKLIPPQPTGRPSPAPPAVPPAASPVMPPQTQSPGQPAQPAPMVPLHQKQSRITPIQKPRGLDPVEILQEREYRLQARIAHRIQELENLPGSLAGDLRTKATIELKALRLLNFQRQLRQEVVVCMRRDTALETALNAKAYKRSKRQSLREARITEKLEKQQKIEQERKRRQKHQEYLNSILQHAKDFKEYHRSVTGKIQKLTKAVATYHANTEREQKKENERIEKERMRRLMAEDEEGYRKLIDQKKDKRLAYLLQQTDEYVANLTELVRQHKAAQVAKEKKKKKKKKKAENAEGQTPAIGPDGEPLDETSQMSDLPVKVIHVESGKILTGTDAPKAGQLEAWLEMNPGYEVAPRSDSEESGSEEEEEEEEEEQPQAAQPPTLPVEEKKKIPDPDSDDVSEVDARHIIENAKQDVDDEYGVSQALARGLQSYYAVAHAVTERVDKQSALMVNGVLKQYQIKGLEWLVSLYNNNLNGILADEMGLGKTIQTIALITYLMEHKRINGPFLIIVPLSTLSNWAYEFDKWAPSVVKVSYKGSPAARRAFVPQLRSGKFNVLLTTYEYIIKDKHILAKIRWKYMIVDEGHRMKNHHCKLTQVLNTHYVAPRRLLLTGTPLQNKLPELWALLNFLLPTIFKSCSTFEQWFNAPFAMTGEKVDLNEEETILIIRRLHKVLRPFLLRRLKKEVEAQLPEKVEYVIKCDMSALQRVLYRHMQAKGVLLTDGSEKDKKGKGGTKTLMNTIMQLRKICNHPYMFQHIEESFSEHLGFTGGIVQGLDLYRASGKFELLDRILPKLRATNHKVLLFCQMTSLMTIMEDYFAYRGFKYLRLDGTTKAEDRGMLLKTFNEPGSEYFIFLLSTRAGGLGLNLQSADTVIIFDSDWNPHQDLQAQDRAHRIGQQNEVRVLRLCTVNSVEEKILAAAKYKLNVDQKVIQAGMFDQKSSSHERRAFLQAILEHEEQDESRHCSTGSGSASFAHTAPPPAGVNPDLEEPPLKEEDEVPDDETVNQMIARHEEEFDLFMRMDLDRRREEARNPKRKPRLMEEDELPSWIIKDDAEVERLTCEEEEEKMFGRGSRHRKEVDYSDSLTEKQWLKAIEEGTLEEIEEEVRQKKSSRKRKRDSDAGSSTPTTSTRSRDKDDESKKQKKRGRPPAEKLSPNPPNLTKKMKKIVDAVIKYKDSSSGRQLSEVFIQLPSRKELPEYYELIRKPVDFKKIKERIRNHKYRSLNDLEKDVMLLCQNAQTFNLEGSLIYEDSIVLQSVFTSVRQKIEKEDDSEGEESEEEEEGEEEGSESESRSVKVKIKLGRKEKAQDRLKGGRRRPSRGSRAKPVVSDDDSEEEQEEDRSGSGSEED

SMILES | IC50 [1] [µM] | IC50 (FL-SMARCA4) [µM]
O=C(Nc1cc(F)c(=O)n(CCF)c1)c1cnc(Cl)o1 [Compound 253] | > 50 | > 50
O=C(Nc1cc(F)c(=O)n(CCF)c1)c1cc(Cl)c(Cl)o1 [Compound 254] | 5.81 | 47.1
O=C(Nc1cc(F)c(=O)n(CC(F)(F)F)c1)c1cc(Cl)c(Cl)o1 [Compound 255] | 16.7 | > 50
O=C(Nc1cc(NCCN2CCOCC2)c(=O)n(CCF)c1)c1cc(Cl)c(Cl)s1 [Compound 256] | 6.34 | 21.4
O=C(Nc1cc(NCCc2cccnc2)c(=O)n(CCF)c1)c1cc(Cl)c(Cl)s1 [Compound 257] | 19.1 | 23.7
CC(=O)Nc1ncc(C(=O)Nc2cc(F)c(=O)n(CCF)c2)s1 [Compound 258] | > 50 | > 50
O=C(Nc1cc(NCCN2CCCC2)c(=O)n(CCF)c1)c1cc(Cl)c(Cl)s1 [Compound 261] | 7.37 | 24.4
CN(C)CCCNc1cc(NC(=O)c2cc(Cl)c(Cl)s2)cn(CCF)c1=O [Compound 262] | 15.3 | 25.9
O=C(Nc1cc(NCCn2ccnc2)c(=O)n(CCF)c1)c1cc(Cl)c(Cl)s1 [Compound 263] | 21.6 | 27.4
O=C(Nc1cc(F)c(=O)n(CCF)c1)c1cc(C(F)(F)F)no1 [Compound 264] | 6.23 | 38.5
N#Cc1ncc(C(=O)Nc2cc(F)c(=O)n(CCF)c2)o1 [Compound 266] | > 50 | > 50
O=C(Nc1cc(NCC2CCCN2)c(=O)n(CCF)c1)c1cc(Cl)c(Cl)s1 (stereo not shown) [Compound 268] | 16.7 | 41.8

Results, then the compound that gave them:

IC50 [1] [µM] | IC50 (FL-SMARCA4) [µM] | SMILES
5.19 | 24.9 | O=C(Nc1cc(F)c(=O)n(CCF)c1)c1cnc(OC(F)F)s1 [Compound 269]
> 50 | > 50 | O=C(Nc1cc(F)c(=O)n(CCc2cn[nH]c2)c1)c1cc(Cl)c(Cl)s1 [Compound 270]
> 50 | > 50 | O=C(Nc1cc(F)c(=O)n(CCF)c1)c1cnc(-n2ccnc2)s1 [Compound 271]
> 50 | > 50 | CCn1cc(NC(=O)c2cc(-c3ccn(C)n3)c(Cl)s2)ccc1=O [Compound 272]
> 50 | > 50 | O=C(Nc1cc(F)c(=O)n(CC(F)(F)F)c1)c1cnc(Cl)o1 [Compound 273]
> 50 | > 50 | O=C(Nc1cc(F)c(=O)n(CCn2ccnc2)c1)c1cc(Cl)c(Cl)s1 [Compound 274]
28.7 | 47.1 | O=C(Nc1cc(F)c(=O)n(CCF)c1)c1cc(Cl)c(C#CCN2CCCC2)s1 [Compound 276]
> 50 | > 50 | O=C(Nc1cc(F)c(=O)n(CCF)c1)c1cn(CC(F)(F)F)c(=O)s1 [Compound 277]
> 50 | > 50 | CNC(=O)c1sc(C(=O)Nc2cc(F)c(=O)n(CCF)c2)cc1Cl [Compound 278]
24 | > 50 | C/C=C/c1cc(C(=O)Nc2ccc(=O)n(CC)c2)sc1Cl [Compound 279]
> 50 | > 50 | CCn1cc(NC(=O)c2cc(-c3cn(C)cn3)c(Cl)s2)ccc1=O [Compound 280]
> 50 | > 50 | O=C(Nc1cc(F)c(=O)n(CCF)c1)c1cnc(-n2ccnc2C(F)(F)F)s1 [Compound 281]
> 50 | > 50 | CN(C)C(=O)c1sc(C(=O)Nc2cc(F)c(=O)n(CCF)c2)cc1Cl [Compound 282]
33.2 | > 50 | CCn1cc(NC(=O)c2cc(Cl)c(-c3ncco3)s2)ccc1=O [Compound 283]
3.21 | 30.6 | O=C(Nc1cc(F)c(=O)n(CCF)c1)c1cc(Cl)c(CO)s1 [Compound 284]
9.49 | 16.7 | CCn1cc(NC(=O)c2cc(C#CCN(C)C)c(Cl)s2)ccc1=O [Compound 286]
1.28 | 3.66 | CCn1cc(NC(=O)c2cc(C#Cc3cccnc3)c(Cl)s2)ccc1=O [Compound 287]
